Assay results: US9326978B2, “A3 adenosine receptor allosteric modulators” (The United States of America, Represented by the Secretary, …, priority 2006, dated 2016)
Entries after “also recorded” stand apart in the source; their conditions may differ.

Assays:
[1] = target: human A3AR (Homo sapiens (Human), UniProt P0DMS8); test: Competitive binding assay to the human A3AR ([125I]I-AB-MECA)
Description: (§1) CHO (Chinese hamster ovary) cells expressing the recombinant human ARs (HEK-293 cells were used for the human A2AAR) were cultured in DMEM and F12 (1:1) supplemented with 10% fetal bovine serum, 100 units/ml penicillin, […] streptomycin and 2 μmol/ml glutamine. Cells were harvested by trypsinization. After homogenization and suspension, cells were centrifuged at 500 g for 10 min, and the pellet was re-suspended in 50 mM Tris.HCl buffer (pH 7.4) containing 10 mM MgCl2. The suspension was homogenized with an electric homogenizer for 10 sec, and was then re-centrifuged at 20,000 g for 20 min at 4° C. The resultant pellets were resuspended in buffer in the presence of 3 Units/mL adenosine deaminase, and the suspension was stored at −80° C. until the binding experiments. The protein concentration was measured using the Bradford assay.
Each tube in the competitive binding assay contained 100 μl membrane suspension (20 μg protein), 50 μl [^125I]-AB-MECA (0.5 nM), and 50 μl of increasing concentrations of the test ligands in Tris.HCl buffer (50 mM, pH 8.0) containing 10 mM MgCl2, 1 mM EDTA. Nonspecific binding was determined using 10 μM of 5′-N-ethylcarboxamidoadenosine in the buffer. The mixtures were incubated at 25° C. for 60 min. Binding reactions were terminated by filtration through Whatman GF/B filters under reduced pressure using a MT-24 cell harvester (Brandell, Gaithersburgh, Md., USA). Filters were washed three times with 9 mL ice-cold buffer. Radioactivity was determined in a Beckman 5500B γ-counter.

[2] = target: human A2A AR (Homo sapiens (Human), UniProt P29274); test: Binding assay to the human A2A AR ([3H]CGS21680); details: 10 μM
Chain of human A2A AR (P29274 whole entry): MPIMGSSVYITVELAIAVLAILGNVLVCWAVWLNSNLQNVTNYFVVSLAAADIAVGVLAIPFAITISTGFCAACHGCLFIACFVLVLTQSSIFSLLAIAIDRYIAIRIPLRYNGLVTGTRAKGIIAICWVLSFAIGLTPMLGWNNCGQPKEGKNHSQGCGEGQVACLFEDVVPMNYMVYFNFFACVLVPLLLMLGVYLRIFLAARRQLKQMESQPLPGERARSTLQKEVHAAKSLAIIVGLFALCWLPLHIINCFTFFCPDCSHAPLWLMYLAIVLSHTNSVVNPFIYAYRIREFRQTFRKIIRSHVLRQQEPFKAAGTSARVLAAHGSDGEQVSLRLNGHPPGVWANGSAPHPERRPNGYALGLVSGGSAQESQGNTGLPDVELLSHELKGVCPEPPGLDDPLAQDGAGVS
Description: as §1
For binding to the human A1AR, [^3H]R-PIA (2 nM) was incubated with membranes (40 μg/tube) from CHO cells stably expressing the human A1AR at 25° C. for 60 min in 50 mM Tris.HCl buffer (pH 7.4; MgCl2, 10 mM) in a total assay volume of 200 μL. Nonspecific binding was determined using 10 μM of N^6-cyclopentyladenosine. For human A2A AR binding, membranes (20 μg/tube) from HEK-293 cells stably expressing the human A2A AR were incubated with 15 nM [^3H]CGS21680 at 25° C. for 60 min in 200 μL of 50 mM Tris.HCl, pH 7.4, containing 10 mM MgCl2. N-5′-ethyluronamidoadenosine (10 μM) was used to define nonspecific binding. Reaction was terminated by filtration with GF/B filters.

Chain of human A3AR (P0DMS8 whole entry): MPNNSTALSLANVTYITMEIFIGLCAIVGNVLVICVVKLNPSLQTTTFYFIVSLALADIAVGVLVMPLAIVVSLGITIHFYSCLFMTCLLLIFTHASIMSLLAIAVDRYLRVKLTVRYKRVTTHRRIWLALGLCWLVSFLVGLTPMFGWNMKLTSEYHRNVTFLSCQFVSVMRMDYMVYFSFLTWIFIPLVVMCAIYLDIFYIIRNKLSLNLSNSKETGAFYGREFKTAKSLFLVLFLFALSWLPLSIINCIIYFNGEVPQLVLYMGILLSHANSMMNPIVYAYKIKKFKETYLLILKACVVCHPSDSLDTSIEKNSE

`Clc1ccc(Nc2nc3ccccc3c3[nH]c(C4CCCCC4)nc23)cc1Cl` [Compound 45, N-(3,4-Dichloro-phenyl)-2-cyclohexyl-1H-imidazo[4,5-c]quinolin-4-amine] was tested, and the “hA3AR % displ. at 10 μM” value ([1]; 10 μM, [125I]I-AB-MECA, CHO cells, Table 3) was 45%, the inhibition at 10 µM ([1]; 1 h, 10 μM, [125I]I-AB-MECA (0.5 nM), CHO cells, Table 2, read-out: hA3AR % displ. at 10 μM) was 45% and the “affinity to orthosteric versus allosteric binding sites (selective affinity)” value ([1]; orthosteric sites of A1, A2A, A2B, A3 receptors vs allosteric site of A3 adenosine receptor) was “selective affinity; also recorded: best separation between orthosteric and allosteric recognition”. For the same molecule, the “hA2AAR % displ. at 10 μM” value ([2]; [3H]CGS 21680 (15 nM), HEK293 cells, Table 2) was −1%, the “hA2AAR % displ. at 10 μM” value ([2]; [3H]CGS 21680, Table 3) was <10% and the “hA2AAR % displ. at 10 μM” value ([2]; [3H]CGS 21680, Table 4) was <10%.
